According to ChEMBL document CHEMBL3817753, “Neurosteroid-like Inhibitors of N-Methyl-d-aspartate Receptor: Substituted 2-Sulfates and 2-Hemisuccinates of Perhydrophenanthrene” (J Med Chem, 2016):

Columns and labels:
[1] = target: Glutamate NMDA receptor; Grin1/Grin2c (Rattus norvegicus, UniProt P35439+Q00961); assay: Inhibition of recombinant rat GluN1a/GluN2C co-expressed in HEK293 cells assessed as suppression of glutamate-induced current by patch-clamp method; type: cell-based
[2] = target: Ionotropic glutamate receptor NMDA 1/2D (Rattus norvegicus, UniProt P35439+Q62645); assay: Inhibition of recombinant rat GluN1a/GluN2D co-expressed in HEK293 cells assessed as suppression of glutamate-induced current by patch-clamp method; type: cell-based
[3] = Inhibition of AMPAR in rat hippocampal neurons assessed as suppression of AMPA-induced current by whole-cell patch-clamp method; type: tissue-based; settings: Hippocampus
[4] = Inhibition of NMDAR in rat hippocampal neurons assessed as suppression of NMDA-induced current by whole-cell patch-clamp method; type: tissue-based; settings: Hippocampus
[5] = target: Glutamate NMDA receptor; Grin1/Grin2a (Rattus norvegicus, UniProt P35439+Q00959); assay: Inhibition of recombinant rat GluN1a/GluN2A co-expressed in HEK293 cells assessed as suppression of glutamate-induced current by patch-clamp method; type: cell-based
[6] = target: Glutamate NMDA receptor; Grin1/Grin2b (Rattus norvegicus, UniProt P35439+Q00960); assay: Inhibition of recombinant rat GluN1a/GluN2B co-expressed in HEK293 cells assessed as suppression of glutamate-induced current by patch-clamp method; type: cell-based
[7] = Inhibition of GABAR in rat hippocampal neurons assessed as suppression of GABA-induced current by whole-cell patch-clamp method; type: tissue-based; settings: Hippocampus

Chain of Glutamate NMDA receptor; Grin1/Grin2b (Q00960 whole entry, other chains not shown): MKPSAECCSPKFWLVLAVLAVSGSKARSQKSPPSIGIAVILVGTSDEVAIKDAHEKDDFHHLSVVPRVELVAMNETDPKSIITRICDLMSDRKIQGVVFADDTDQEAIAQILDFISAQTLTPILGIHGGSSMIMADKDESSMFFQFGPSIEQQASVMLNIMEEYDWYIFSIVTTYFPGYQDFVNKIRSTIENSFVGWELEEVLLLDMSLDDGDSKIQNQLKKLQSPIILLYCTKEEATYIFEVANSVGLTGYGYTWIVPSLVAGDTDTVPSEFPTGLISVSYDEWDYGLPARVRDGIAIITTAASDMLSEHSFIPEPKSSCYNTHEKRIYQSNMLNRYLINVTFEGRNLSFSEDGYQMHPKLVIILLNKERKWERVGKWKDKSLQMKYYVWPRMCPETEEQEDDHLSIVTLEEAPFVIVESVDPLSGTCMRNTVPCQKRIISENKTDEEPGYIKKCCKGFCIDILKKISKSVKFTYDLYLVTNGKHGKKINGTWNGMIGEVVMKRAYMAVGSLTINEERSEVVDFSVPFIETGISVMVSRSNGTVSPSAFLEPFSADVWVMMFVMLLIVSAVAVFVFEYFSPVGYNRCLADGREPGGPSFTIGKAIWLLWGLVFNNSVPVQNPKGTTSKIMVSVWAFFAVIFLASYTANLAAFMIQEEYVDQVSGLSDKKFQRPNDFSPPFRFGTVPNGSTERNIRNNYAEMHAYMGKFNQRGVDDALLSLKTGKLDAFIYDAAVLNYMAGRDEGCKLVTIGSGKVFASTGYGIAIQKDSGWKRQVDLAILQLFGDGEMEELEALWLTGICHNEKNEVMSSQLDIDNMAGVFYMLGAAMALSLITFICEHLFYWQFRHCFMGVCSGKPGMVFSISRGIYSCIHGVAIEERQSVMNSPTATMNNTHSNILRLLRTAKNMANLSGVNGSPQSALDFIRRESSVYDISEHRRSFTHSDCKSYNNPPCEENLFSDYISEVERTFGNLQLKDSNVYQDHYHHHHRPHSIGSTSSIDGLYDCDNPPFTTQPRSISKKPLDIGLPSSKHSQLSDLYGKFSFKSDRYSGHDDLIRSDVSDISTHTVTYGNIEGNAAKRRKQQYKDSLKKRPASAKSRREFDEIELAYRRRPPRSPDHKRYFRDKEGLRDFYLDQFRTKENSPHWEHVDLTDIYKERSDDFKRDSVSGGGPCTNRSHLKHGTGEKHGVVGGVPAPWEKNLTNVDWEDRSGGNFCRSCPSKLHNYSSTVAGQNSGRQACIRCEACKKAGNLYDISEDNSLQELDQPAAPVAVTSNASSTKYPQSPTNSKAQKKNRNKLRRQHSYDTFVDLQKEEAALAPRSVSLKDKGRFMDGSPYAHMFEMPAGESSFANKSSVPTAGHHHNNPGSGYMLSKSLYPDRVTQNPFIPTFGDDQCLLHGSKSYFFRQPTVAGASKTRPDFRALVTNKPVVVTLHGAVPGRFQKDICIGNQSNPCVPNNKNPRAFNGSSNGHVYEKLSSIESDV
Chain of Ionotropic glutamate receptor NMDA 1/2D (Q62645 whole entry, other chains not shown): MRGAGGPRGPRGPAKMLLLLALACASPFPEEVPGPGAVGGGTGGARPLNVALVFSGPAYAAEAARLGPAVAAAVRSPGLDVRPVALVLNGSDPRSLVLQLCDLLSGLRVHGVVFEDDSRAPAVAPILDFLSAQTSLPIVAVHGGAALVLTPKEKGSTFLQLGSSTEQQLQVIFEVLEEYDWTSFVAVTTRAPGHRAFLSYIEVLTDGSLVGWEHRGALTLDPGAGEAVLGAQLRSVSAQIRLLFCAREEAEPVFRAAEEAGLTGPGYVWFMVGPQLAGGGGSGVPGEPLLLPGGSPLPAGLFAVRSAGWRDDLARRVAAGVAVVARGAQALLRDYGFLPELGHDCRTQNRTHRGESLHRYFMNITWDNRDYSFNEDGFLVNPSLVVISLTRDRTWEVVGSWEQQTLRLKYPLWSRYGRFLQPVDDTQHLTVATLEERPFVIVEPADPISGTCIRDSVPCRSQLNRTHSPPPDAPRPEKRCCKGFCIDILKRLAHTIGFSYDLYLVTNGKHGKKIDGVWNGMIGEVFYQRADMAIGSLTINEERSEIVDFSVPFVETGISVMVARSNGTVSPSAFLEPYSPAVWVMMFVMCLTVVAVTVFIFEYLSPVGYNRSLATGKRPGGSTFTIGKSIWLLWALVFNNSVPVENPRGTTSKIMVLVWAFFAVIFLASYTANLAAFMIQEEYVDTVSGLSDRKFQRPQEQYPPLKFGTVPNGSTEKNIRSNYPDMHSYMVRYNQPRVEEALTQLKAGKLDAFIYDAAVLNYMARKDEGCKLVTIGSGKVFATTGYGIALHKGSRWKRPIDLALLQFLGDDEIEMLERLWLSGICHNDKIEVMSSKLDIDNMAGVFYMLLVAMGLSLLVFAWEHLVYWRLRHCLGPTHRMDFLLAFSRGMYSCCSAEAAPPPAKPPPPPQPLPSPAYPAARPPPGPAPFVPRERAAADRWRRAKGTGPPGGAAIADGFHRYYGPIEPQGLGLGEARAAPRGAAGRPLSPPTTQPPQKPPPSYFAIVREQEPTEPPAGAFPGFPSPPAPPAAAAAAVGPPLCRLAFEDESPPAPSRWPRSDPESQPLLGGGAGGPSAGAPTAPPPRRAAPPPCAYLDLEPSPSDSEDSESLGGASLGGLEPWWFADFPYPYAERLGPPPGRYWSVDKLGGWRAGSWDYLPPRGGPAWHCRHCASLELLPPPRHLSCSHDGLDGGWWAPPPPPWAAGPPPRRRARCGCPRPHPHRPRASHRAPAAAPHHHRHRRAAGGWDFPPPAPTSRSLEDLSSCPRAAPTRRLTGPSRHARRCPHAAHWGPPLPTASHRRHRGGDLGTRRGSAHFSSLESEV
Chain of Glutamate NMDA receptor; Grin1/Grin2c (Q00961 whole entry, other chains not shown): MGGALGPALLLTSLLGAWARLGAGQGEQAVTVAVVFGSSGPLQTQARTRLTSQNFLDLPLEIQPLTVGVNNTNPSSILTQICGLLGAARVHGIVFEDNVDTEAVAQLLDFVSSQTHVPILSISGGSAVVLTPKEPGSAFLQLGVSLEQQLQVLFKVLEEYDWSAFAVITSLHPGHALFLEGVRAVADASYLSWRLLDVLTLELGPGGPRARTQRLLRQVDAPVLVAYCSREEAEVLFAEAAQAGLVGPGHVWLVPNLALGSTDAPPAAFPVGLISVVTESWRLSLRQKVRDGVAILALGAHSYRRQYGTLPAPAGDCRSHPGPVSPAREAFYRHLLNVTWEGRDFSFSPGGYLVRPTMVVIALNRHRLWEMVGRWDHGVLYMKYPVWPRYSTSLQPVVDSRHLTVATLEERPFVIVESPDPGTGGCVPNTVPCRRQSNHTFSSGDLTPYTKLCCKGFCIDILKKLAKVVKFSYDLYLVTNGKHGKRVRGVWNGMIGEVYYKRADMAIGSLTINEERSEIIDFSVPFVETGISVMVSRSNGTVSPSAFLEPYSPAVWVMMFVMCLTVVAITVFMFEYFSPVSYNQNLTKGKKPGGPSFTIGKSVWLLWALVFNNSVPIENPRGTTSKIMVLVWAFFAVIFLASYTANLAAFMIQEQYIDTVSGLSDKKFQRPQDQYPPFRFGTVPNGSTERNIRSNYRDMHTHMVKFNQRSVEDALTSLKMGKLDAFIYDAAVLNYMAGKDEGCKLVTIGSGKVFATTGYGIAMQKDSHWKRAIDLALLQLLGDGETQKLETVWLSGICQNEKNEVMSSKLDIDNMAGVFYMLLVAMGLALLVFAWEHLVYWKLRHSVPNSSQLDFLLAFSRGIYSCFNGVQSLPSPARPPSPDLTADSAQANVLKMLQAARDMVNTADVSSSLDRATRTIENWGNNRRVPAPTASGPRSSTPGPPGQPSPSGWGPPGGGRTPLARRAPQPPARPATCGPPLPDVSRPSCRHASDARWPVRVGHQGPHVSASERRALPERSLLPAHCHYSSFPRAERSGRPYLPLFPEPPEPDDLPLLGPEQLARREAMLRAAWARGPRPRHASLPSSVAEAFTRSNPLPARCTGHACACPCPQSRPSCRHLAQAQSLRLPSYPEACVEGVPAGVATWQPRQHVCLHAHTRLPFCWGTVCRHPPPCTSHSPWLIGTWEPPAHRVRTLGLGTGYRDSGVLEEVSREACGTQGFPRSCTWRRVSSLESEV

Row | IC50 [6] | SMILES | also measured
1 | 63.4 µM | COC(=O)[C@@]1(C)CC[C@H]2[C@@H](CC[C@@H]3C[C@H](OC(=O)CCC(=O)O)CC[C@@]32C)[C@@H]1C | 
2 | 29.2 µM | COC[C@@]1(C)CC[C@H]2[C@@H](CC[C@@H]3C[C@H](OC(=O)CCC(=O)O)CC[C@@]32C)[C@@H]1C | 
3 | 87.6 µM | COC(=O)[C@@]1(C)CC[C@H]2[C@@H](CC[C@@H]3C[C@H](OC(=O)CCC(=O)O)CC[C@@]32C)C1 | 
4 | 33.3 µM | COC[C@@]1(C)CC[C@H]2[C@@H](CC[C@@H]3C[C@H](OC(=O)CCC(=O)O)CC[C@@]32C)C1 | 

Row | SMILES | IC50 [6] | also measured
5 | C[C@@H]1CC[C@H]2[C@@H](CC[C@@H]3C[C@H](OS(=O)(=O)O)CC[C@@]32C)C1.c1ccncc1 | 15.6 µM | IC50 [1]: 11.1 µM; IC50 [2]: 8.1 µM; IC50 [3]: 83 µM; IC50 [4]: 13.7 µM; IC50 [5]: 10.9 µM; IC50 [7]: 3.1 µM
6 | COC[C@@]1(C)CC[C@H]2[C@@H](CC[C@@H]3C[C@H](OS(=O)(=O)O)CC[C@@]32C)C1.c1ccncc1 | 77 µM | 
7 | COC(=O)[C@@]1(C)CC[C@H]2[C@@H](CC[C@@H]3C[C@H](OS(=O)(=O)O)CC[C@@]32C)[C@@H]1C.c1ccncc1 | 74.6 µM | 
